Assay results published in publication PMC7946667 (Cancer Chemotherapy and Pharmacology, 2021).
Where two headings read alike, the source gives them in different places.

What was measured:
[1] = Safety and tolerability (adverse events) of ceritinib 750 mg QD in patients
Protocol: (§1) Adverse events (AEs) were coded using the Medical Dictionary for Regulatory Activities version 20.1 and were graded using Common Terminology Criteria for Adverse Events version 4.03. All patients were followed up for AEs and serious AEs (SAEs) for at least 30 days following the last dose of study treatment at the end of treatment phase. Tumor evaluation was performed at screening visit within 28 days prior to study treatment (Day 1 of DDI phase) using contrast enhanced computed tomography (or magnetic resonance imaging). Assessments of tumor response were performed every two cycles (i.e., every 6 weeks) through Cycle 9. ORR and DOR by investigator assessment was reported per Response Evaluation Criteria in Solid Tumors (RECIST) 1.1.

CYP2C19 = conditions: cited from earlier work
[2] = cited from earlier work
CYP1A2 = conditions: cited from earlier work
CYP3A [3] = conditions: in vitro HLM studies; cited from earlier work
CYP3A [4] = assay: Clinical DDI study: pharmacokinetics of midazolam (CYP3A probe substrate) and 1′-hydroxymidazolam with and without ceritinib; type: in vivo, human; conditions: based on midazolam AUC increase, ceritinib 750 mg QD
Source text: This was a multicenter, open-label, single sequence, crossover phase I study (ClinicalTrials.gov identifier: NCT02422589) and was divided into two phases, DDI phase and post-DDI treatment phase (Fig. 1). Patients were recruited from 10 clinical centers located across 4 countries, namely Spain (n = 3), United States (n = 3), Italy (n = 3), and Denmark (n = 1).
To assess the pharmacokinetics of probe substrates, blood samples were obtained on Days 1 and 28 at pre-dose and at 0.25, 0.5, 1, 2, 3, 4, 6, 8, 10, 24, 48, 72, 96, 120, and 144 h post-dose. […] A blood sample for CYP2C9 genotyping was collected on Day 1 of the DDI phase from all participating patients. Patients were categorized as CYP2C9 poor, intermediate, or extensive metabolizers based on the genotype testing results. This assessment was of exploratory nature and was not used as inclusion/exclusion criteria in the study.
A linear mixed-effects model was fitted to the log-transformed primary PK parameters (Cmax, AUC0-144 h, and AUC0-inf) and included a fixed effect for treatment and a random effect for subject.

CYP2C9 [5] = conditions: cited from earlier work
CYP2C8 = conditions: cited from earlier work
CYP2A6 = conditions: HLM, of more minor clinical relevance; cited from earlier work
CYP3A4/5 = conditions: cited from earlier work
[6] = system: advanced ALK-positive tumors; assay: Antitumor activity (best overall response, ORR, DCR per RECIST 1.1, investigator assessment); type: in vivo, human
Protocol: as §1

CYP2C9 [7] = conditions: based on S-warfarin AUC increase, ceritinib 750 mg QD
CYP2B6 = conditions: cited from earlier work
CYP2D6 = conditions: cited from earlier work
[8] = ceritinib concentrations up to 50 µM
[9] = HLM, read-out: IC50, reversible inhibition
[10] = HLM, read-out: Ki, reversible inhibition
[11] = All Patients N=33, ceritinib 750 mg QD
[12] = NSCLC N=19, ceritinib 750 mg QD
[13] = Other tumors N=14, ceritinib 750 mg QD
[14] = HLM, of more minor clinical relevance

For `Cc1cc(Nc2ncc(Cl)c(Nc3ccccc3S(=O)(=O)C(C)C)n2)c(OC(C)C)cc1C1CCNCC1` [ceritinib], the “deaths suspected to be treatment related” value ([1]; all patients N=33) was “None”, the “patients who died during the study” value ([1]; all patients N=33, cause study disease) was 8 patients and the “deaths during the on-treatment period” value ([1]; within 30 days of last dose of ceritinib) was 4 deaths. For the same molecule, the “inhibition at clinically relevant concentrations” value (CYP2C19) was “unlikely to inhibit”, the Cmax at steady-state ([2]; observed in earlier clinical trials) was 1010 ng/mL and the Cmax ([2]; observed in earlier clinical trials, read-out: Cmax at steady-state) was 1800 nM. The time to steady-state ([2]; repeat daily dosing) was 2–3 weeks, the time-dependent inhibition (CYP1A2; [8]) was “no apparent time-dependent inhibition” and the “inhibition at clinically relevant concentrations” value (CYP1A2) was “unlikely to inhibit”. The “share of hepatic oxidative metabolism via CYP3A” value (CYP3A [3]) was over 90%, the “classification as CYP3A inhibitor” value (CYP3A [4]) was “strong inhibitor of CYP3A” and the “classification as CYP3A inhibitor” value (CYP3A [4]; listed as Ceritinib) was “strong CYP3A inhibitor”. The IC50 (CYP2C9 [5]; [9]) was 2000 nM, the Ki (CYP2C9 [5]; [10]) was 240 nM and the time-dependent inhibition (CYP2C9 [5]; [8]) was “no apparent time-dependent inhibition”. The “mode of inhibition of metabolism of diclofenac (CYP2C9 substrate)” value (CYP2C9 [5]; pooled HLMs) was “competitively inhibited”, the “inhibition at clinically relevant concentrations” value (CYP2C8) was “unlikely to inhibit” and the reversible inhibition (CYP2A6) was “reversibly inhibits”. For the same molecule, the IC50 (CYP3A4/5; [9]) was 200 nM, the Ki (CYP3A4/5; [10]) was 160 nM and the “mode of inhibition of metabolism of midazolam (CYP3A substrate)” value (CYP3A4/5; pooled HLMs) was “competitively inhibited”. The “inhibitor concentration associated with 50% maximal inactivation rate [Ki]” value (CYP3A4/5; time-dependent inhibition of CYP3A, HLM) was 1470 nM, the ORR ([6]; 19 patients with NSCLC, 95% CI: 20.3, 66.5) was 42.1% and the DCR ([6]; 19 patients with NSCLC, 95% CI: 38.4, 83.7) was 63.2%. For the same molecule, the “Best overall response Unknown” value [6, 11] was 6 (18.2) n (%), the “Complete response (CR)” value [6, 11] was 1 (3.0) n (%) and the Non-CR/Non-PD [6, 11] was 2 (6.1) n (%). The “Partial response (PR)” value [6, 11] was 8 (24.2) n (%), the “Progressive disease (PD)” value [6, 11] was 12 (36.4) n (%) and the “Best overall response Unknown” value [6, 12] was 4 (21.1) n (%). For the same molecule, the “Complete response (CR)” value [6, 12] was 1 (5.3) n (%), the Non-CR/Non-PD [6, 12] was 2 (10.5) n (%) and the “Partial response (PR)” value [6, 12] was 7 (36.8) n (%). The “Progressive disease (PD)” value [6, 12] was 3 (15.8) n (%), the “Best overall response Unknown” value [6, 13] was 2 (14.3) n (%) and the “Complete response (CR)” value [6, 13] was 0 n (%). For the same molecule, the Non-CR/Non-PD [6, 13] was 0 n (%), the “Partial response (PR)” value [6, 13] was 1 (7.1) n (%) and the “Progressive disease (PD)” value [6, 13] was 9 (64.3) n (%). For the same molecule, the ORR ([6]; overall, all 33 patients, 95% CI: 13.3, 45.5) was 27.3%, the DCR ([6]; overall, all 33 patients, 95% CI: 28.1, 63.6) was 45.5% and the “classification as CYP2C9 inhibitor” value (CYP2C9 [7]) was “weak inhibitor of CYP2C9”. For the same molecule, the “classification as CYP2C9 inhibitor” value (CYP2C9 [7]; listed as Ceritinib) was “weak CYP2C9 inhibitor”, the reversible inhibition (CYP2B6; [14]) was “reversibly inhibits” and the “inhibition at clinically relevant concentrations” value (CYP2B6) was “unlikely to inhibit”. For the same molecule, the reversible inhibition (CYP2D6; [14]) was “reversibly inhibits”, the time-dependent inhibition (CYP2D6; [8]) was “no apparent time-dependent inhibition” and the “inhibition at clinically relevant concentrations” value (CYP2D6) was “unlikely to inhibit”.
